Reference: paper PMC2880701 (Journal of the American Chemical Society, 2009)

Key:
HDAC2 = HDAC2 (Homo sapiens, UniProt Q92769); type: biochemical; settings: read-out: HDAC inhibitory activity IC50, HDAC2
HDAC1 = HDAC1 (Homo sapiens, UniProt Q13547); assay: homogeneous trypsin-coupled fluorigenic HDAC assay, HDAC1; settings: isostere versus corresponding depsipeptide natural product (active thiol forms)
HDAC1, sequence (Q13547 whole entry): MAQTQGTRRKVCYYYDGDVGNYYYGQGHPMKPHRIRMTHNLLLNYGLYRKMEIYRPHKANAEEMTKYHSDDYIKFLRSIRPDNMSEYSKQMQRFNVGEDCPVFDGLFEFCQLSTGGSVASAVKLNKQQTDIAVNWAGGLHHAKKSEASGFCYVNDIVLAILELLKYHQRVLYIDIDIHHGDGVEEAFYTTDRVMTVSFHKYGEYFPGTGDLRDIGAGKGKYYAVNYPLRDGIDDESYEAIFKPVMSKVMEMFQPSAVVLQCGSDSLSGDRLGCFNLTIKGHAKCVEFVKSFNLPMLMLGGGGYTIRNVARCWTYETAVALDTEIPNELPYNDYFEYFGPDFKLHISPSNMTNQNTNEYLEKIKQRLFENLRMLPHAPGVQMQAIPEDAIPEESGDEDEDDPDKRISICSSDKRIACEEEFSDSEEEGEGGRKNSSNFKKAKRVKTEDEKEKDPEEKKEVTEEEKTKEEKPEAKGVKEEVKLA

HDAC2, sequence (Q92769 whole entry): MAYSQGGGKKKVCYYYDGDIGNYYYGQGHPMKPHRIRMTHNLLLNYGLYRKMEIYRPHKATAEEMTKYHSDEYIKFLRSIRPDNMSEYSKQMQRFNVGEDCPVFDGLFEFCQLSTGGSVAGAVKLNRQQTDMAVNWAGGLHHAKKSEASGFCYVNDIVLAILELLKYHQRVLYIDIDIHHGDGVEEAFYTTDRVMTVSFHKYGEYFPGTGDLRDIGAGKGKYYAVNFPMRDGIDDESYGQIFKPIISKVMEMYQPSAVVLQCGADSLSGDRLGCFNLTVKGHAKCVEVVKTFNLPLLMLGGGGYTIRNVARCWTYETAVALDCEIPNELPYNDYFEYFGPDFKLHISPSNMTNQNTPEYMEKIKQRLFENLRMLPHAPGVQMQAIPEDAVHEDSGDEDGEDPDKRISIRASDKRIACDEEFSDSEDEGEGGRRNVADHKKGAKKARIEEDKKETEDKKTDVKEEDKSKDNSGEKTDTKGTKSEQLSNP

**Q.** With `CCCCCCCC(=O)SCC/C=C/[C@@H]1CC(=O)NCc2nc(cs2)C2=N[C@@](C)(CS2)C(=O)N[C@@H](C(C)C)C(=O)N1` [Largazole Isostere (11)] as the molecule, how does the IC50 (HDAC2) read?
**A.** Its IC50 is > 3000 nM.

**Q.** `CC(C)[C@@H]1NC(=O)[C@]2(C)CSC(=N2)c2csc(n2)CNC(=O)C[C@@H](/C=C/CCS)NC1=O` [Largazole Isostere Thiol (31)] was tested. Which “fold less potent against HDAC1 than the parent natural product” value (HDAC1) did it give?
**A.** The value was 9 fold.
